These are literature values, as cited in US8865899B2 (AstraZeneca AB, priority 2006, dated 2014).

One data set concerns VEGF RTK. The following applies: statement in words, background.
The next data set concerns tumour models. The following applies: once-daily oral administration; Wedge et al, Proc. Am. Assoc. Canc. Res. 2001; 42: abstract 3126.

Regarding `COc1cc2c(Nc3ccc(Br)cc3F)ncnc2cc1OCC1CCN(C)CC1` [ZD6474, 4-(4-bromo-2-fluoroanilino)-6-methoxy-7-(1-methylpiperidin-4-ylmethoxy)quinazoline], the “inhibition of VEGF RTK” value in the data set on VEGF RTK was “potent inhibitor”. For the same molecule, the anti-tumour activity entry in the data set with tumour models was “broad-spectrum anti-tumour activity”.
